Test results as given in publication PMC11489226 (Archives of Toxicology, 2024).

Experiments:
CYP2C8 = biological target: T1, CYP2C8 (Homo sapiens, UniProt P10632); experiment: Metabolism in transgenic HEK293 cells expressing CYP2C8; type: in vitro ADME; details: 20 µM parent PCB, 24 h, supernatant
T1 construct: V5-His (vector-encoded) (C); expressed in transfected cells
T1 sequence (P10632 1-490): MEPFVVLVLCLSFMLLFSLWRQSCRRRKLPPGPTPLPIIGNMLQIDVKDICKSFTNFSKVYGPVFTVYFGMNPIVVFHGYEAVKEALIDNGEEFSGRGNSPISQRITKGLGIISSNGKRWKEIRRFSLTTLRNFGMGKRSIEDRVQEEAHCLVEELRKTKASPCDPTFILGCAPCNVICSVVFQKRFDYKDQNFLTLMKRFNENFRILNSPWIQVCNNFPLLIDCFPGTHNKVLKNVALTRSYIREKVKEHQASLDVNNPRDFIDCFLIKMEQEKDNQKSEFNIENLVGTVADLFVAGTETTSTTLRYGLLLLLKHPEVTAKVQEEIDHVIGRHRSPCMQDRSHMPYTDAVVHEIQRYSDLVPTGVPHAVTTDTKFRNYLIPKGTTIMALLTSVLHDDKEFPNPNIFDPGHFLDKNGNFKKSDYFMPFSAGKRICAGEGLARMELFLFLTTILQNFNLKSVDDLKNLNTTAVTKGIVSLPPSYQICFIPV
Description: (§1) For the generation of transgenic cell lines, we used semi-adherent HEK293 cells (DSMZ, ACC305, human embryonic kidney cells) which were cultured on a daily basis in DMEM medium supplemented with 10% (FCS) and 1% penicillin/streptomycin. In a first step CYP1A2, CYP2C8, CYP2C9, CYP3A4, CYP2A6, and CYP2E1 cDNA were cloned into the plasmid pcDNATM3.1/V5-His TOPO® using human liver RNA as a template and using the following primers: CYP1A2 for5′-[…]-3′, CYP1A2 rev 5′-[…]-3′; CYP2C8 for 5′-[…]-3′, CYP2C8 rev 5′-[…]-3′; CYP2C9 for 5′-[…]-3′, CYP2C9 rev 5′-[…]-3′; CYP3A4 for 5′-[…]-3′, CYP3A4 rev 5′-[…]-3′, CYP2A6 for 5′-[…]-3′, CYP2A6 rev 5′-[…]-3′; CYP2E1 for 5′-[…]-3′, CYP2E1 rev 5′-[…]-3′. Final constructs were verified with Sanger DNA sequencing and restriction digestion. For transfection, 3 × 10^6 HEK293 cells were pre-incubated in a 10 cm dish in DMEM medium with 10% FCS, but without antibiotics, for 18 to 24 h. When the cells reached approximately 70% confluency, they were transfected using TransIT-LT1 transfection reagent (Biozol, Eiching, Germany). The TransIT-LT1 reagent was warmed to room temperature and vortexed. 1.63 mL Opti-MEM, 16.25 µL plasmid DNA (1 µg/µL), and 48.75 µL TransIT-LT1 reagent were mixed and incubated for 15 to 30 min. The mixture was then added dropwise to the medium of the cells, and the cells were incubated again at 37 °C and 5% CO2. After 24 h, the medium was replaced with standard medium and geneticin was added for selection (1 mg/mL). Cells were selected for 6–8 weeks in bulk culture, and single cell clones were obtained subsequently by limiting dilution. Each clone was checked for insertion by PCR using genomic DNA as a template.
Parallel samples were run without the addition of PCBs. At a confluence of 80%, PCBs (20 μM each, dissolved in ethanol) were added and cells were incubated for 24 h before harvest of supernatants. Supernatants were diluted 1:2 with 80 μL acetate buffer 0.1 M (pH = 5.3). 100 μL of this dilution were further incubated with 100 μL of ammonium acetate buffer 0.1 M (pH = 5.3) and 5 μL of β-Glucuronidase/Arylsulfatase enzyme overnight in a drying oven at 37 °C for enzymatic hydrolysis to release conjugated compounds. 50 μL of a mix of internal standards (10 ng/mL) and 600 μL of methanol were added to the samples, then mixed by vortexing for 1 min and centrifuged for 10 min at 3400g. The individual supernatants were transferred to glass LC vials and evaporated to approximately 50 μL at 45 °C under a gentle stream of nitrogen. Finally, 0.1 mol/ L ammonium acetate buffer was added to a final volume of 100 μL and then transferred to an insert for analysis. […]

CYP2E1 = CYP2E1 (Homo sapiens, UniProt P05181); experiment: Metabolism in transgenic HEK293 cells expressing CYP2E1; details: 20 µM parent PCB, 24 h, supernatant
Sequence of CYP2E1 (P05181 whole entry): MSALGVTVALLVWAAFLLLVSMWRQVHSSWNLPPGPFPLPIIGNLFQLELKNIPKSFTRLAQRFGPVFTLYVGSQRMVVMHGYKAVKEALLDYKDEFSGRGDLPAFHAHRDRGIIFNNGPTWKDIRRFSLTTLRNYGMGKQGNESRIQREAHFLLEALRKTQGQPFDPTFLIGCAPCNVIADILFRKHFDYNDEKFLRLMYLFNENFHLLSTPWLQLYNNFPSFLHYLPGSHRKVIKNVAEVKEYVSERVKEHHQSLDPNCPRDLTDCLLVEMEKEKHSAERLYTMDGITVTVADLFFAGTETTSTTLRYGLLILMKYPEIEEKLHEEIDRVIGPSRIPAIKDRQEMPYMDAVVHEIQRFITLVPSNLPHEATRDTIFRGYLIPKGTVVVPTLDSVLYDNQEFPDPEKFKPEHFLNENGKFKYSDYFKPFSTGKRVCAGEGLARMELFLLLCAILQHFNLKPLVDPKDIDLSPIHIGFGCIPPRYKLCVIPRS
Description: as §1
Parallel samples were run without the addition of PCBs. At a confluence of 80%, PCBs (20 μM each, dissolved in ethanol) were added and cells were incubated for 24 h before harvest of supernatants. Supernatants were diluted 1:2 with 80 μL acetate buffer 0.1 M (pH = 5.3). 100 μL of this dilution were further incubated with 100 μL of ammonium acetate buffer 0.1 M (pH = 5.3) and 5 μL of β-Glucuronidase/Arylsulfatase enzyme overnight in a drying oven at 37 °C for enzymatic hydrolysis to release conjugated compounds. 50 μL of a mix of internal standards (10 ng/mL) and 600 μL of methanol were added to the samples, then mixed by vortexing for 1 min and centrifuged for 10 min at 3400g. The individual supernatants were transferred to glass LC vials and evaporated to approximately 50 μL at 45 °C under a gentle stream of nitrogen. Finally, 0.1 mol/ L ammonium acetate buffer was added to a final volume of 100 μL and then transferred to an insert for analysis.
HEK293 cells overexpressing the respective CYP enzymes were seeded onto 6-well plates and were treated with or without 10 µM of the respective probe drug in DMEM medium for 24 hours at 37 °C and 5 % CO2. After incubation 200 µL DMEM were collected, cells were washed with PBS and adherent cells were lysed in 500 µL methanol for 20 minutes. Analytes were measured by LC-MS/MS either in methanol cell lysates or in DMEM supernatant.
50 µL of DMEM samples were protein precipitated by adding 200 µL of methanol and were centrifuged for 20 min, 17,000 g and 4°C. Supernatants were diluted in water or 40 % methanol according to dilution factor. Methanol cell lysates were diluted ½ with water and centrifuged for 20 min, 17,000 g and 4°C. 5 µL of the processed samples were injected for LC-MS analysis.

Measured: Quantification of metabolites generated from PCB28, 52, and 101

Oc1cc(Cl)c(-c2ccc(Cl)cc2)cc1Cl [4-OHCB31, 2,4′,5-trichloro-4-biphenylol]
<LOQ: CYP2C8; CYP2C8 Clone A3 | CYP2C8; CYP2C8 Clone D8 | CYP2C8; CYP2C8 Clone D9 | CYP2E1; CYP2E1 Clone B4 | CYP2E1; CYP2E1 Clone B5 | CYP2E1; CYP2E1 Clone E6

Oc1cc(-c2ccc(Cl)cc2)c(Cl)cc1Cl [5-OHCB28, 2,4,4′-trichloro-5-biphenylol]
<LOQ: CYP2C8; CYP2C8 Clone A3 | CYP2C8; CYP2C8 Clone D8 | CYP2C8; CYP2C8 Clone D9 | CYP2E1; CYP2E1 Clone B4 | CYP2E1; CYP2E1 Clone B5 | CYP2E1; CYP2E1 Clone E6
